# Columns and labels:
# HOP-62 = experiment: panel of 60 human tumor cell lines, growth inhibition (Non-Small Cell Lung Cancer); conditions: Homo sapiens; for GI50: HOP-62; for CC50: HOP-62, read-out: LC50; for IC (TGI): HOP-62, read-out: TGI
# MDA-MB-231/ATCC = experiment: panel of 60 human tumor cell lines, growth inhibition (Breast Cancer); conditions: Homo sapiens; for GI50: MDA-MB-231; for CC50: MDA-MB-231, read-out: LC50; for IC (TGI): MDA-MB-231, read-out: TGI
# HOP-92 = experiment: panel of 60 human tumor cell lines, growth inhibition (Non-Small Cell Lung Cancer); conditions: Homo sapiens; for GI50: HOP-92, HOP-92, NCI five dose; for CC50: HOP-92, read-out: LC50; for IC (TGI): HOP-92, read-out: TGI
# OVCAR-5 = experiment: panel of 60 human tumor cell lines, growth inhibition (Ovarian Cancer); conditions: Homo sapiens; for GI50: OVCAR-5; for CC50: OVCAR-5, read-out: LC50; for IC (TGI): OVCAR-5, read-out: TGI
# HCC-2998 = experiment: panel of 60 human tumor cell lines, growth inhibition (Colon Cancer); conditions: Homo sapiens; for GI50: HCC 2998; for CC50: HCC 2998, read-out: LC50; for IC (TGI): HCC 2998, read-out: TGI
# SF-268 = experiment: panel of 60 human tumor cell lines, growth inhibition (CNS Cancer); conditions: Homo sapiens; for GI50: SF-268; for CC50: SF-268, read-out: LC50; for IC (TGI): SF-268, read-out: TGI
# A549/ATCC = experiment: panel of 60 human tumor cell lines, growth inhibition (Non-Small Cell Lung Cancer); conditions: Homo sapiens; for GI50: A549; for CC50: A549, read-out: LC50; for IC (TGI): A549, read-out: TGI
# SF-295 = experiment: panel of 60 human tumor cell lines, growth inhibition (CNS Cancer); conditions: Homo sapiens; for GI50: SF-295; for CC50: SF-295, read-out: LC50; for IC (TGI): SF-295, read-out: TGI
# SW-620 = experiment: panel of 60 human tumor cell lines, growth inhibition (Colon Cancer); conditions: Homo sapiens; for GI50: SW-620, SW-620, NCI five dose; for CC50: SW-620, read-out: LC50; for IC (TGI): SW-620, read-out: TGI
# IGROV1 = experiment: panel of 60 human tumor cell lines, growth inhibition (Ovarian Cancer); conditions: Homo sapiens; for GI50: IGROV-1; for CC50: IGROV-1, read-out: LC50; for IC (TGI): IGROV-1, read-out: TGI
# U251 = experiment: panel of 60 human tumor cell lines, growth inhibition (CNS Cancer); conditions: Homo sapiens; for GI50: U-251; for CC50: U-251, read-out: LC50; for IC (TGI): U-251, read-out: TGI
# NCI-H522 = experiment: panel of 60 human tumor cell lines, growth inhibition (Non-Small Cell Lung Cancer); conditions: Homo sapiens; for GI50: NCI-H522; for CC50: NCI-H522, read-out: LC50; for IC (TGI): NCI-H522, read-out: TGI
# A498 = experiment: panel of 60 human tumor cell lines, growth inhibition (Renal Cancer); conditions: Homo sapiens; for GI50: A498; for CC50: A498, read-out: LC50; for IC (TGI): A498, read-out: TGI
# SN12C = experiment: as above; conditions: Homo sapiens; for CC50: read-out: LC50; for IC (TGI): read-out: TGI
# PC-3 = experiment: panel of 60 human tumor cell lines, growth inhibition (Prostate Cancer); conditions: Homo sapiens; for GI50: PC-3; for CC50: PC-3, read-out: LC50; for IC (TGI): PC-3, read-out: TGI
# LOX IMVI = experiment: panel of 60 human tumor cell lines, growth inhibition (Melanoma); conditions: Homo sapiens; for GI50: NCI five dose; for CC50: read-out: LC50; for IC (TGI): read-out: TGI
# UACC-257 = experiment: as above; conditions: for GI50 / CC50: Homo sapiens; for GI50 / Percent Growth / TGI: UACC-257; for CC50: UACC-257, read-out: LC50; for TGI: NCI five dose
# SNB-19 = experiment: panel of 60 human tumor cell lines, growth inhibition (CNS Cancer); conditions: Homo sapiens; for GI50: SNB-19; for CC50: SNB-19, read-out: LC50; for IC (TGI): SNB-19, read-out: TGI
# CAKI-1 = experiment: panel of 60 human tumor cell lines, growth inhibition (Renal Cancer); conditions: Homo sapiens; for GI50: CAKI-1; for CC50: CAKI-1, read-out: LC50; for IC (TGI): CAKI-1, read-out: TGI
smiles,measurement,setting,value
C=C1C(=O)O[C@H]2[C@H]1CC/C(COC(=O)NCCCCCCO)=C\CC[C@@]1(C)O[C@@H]21 [JVM 2-31],GI50,HOP-62,19.6 µM
same,CC50,HOP-62,86.7 µM
same,IC (TGI),HOP-62,41.2 µM
same,GI50,MDA-MB-231/ATCC,8.01 µM
same,CC50,MDA-MB-231/ATCC,57.9 µM
same,IC (TGI),MDA-MB-231/ATCC,20.3 µM
same,GI50,HOP-92,2.77 µM
same,CC50,HOP-92,38.5 µM
same,IC (TGI),HOP-92,9.99 µM
same,GI50,OVCAR-5,13.4 µM
same,CC50,OVCAR-5,64.1 µM
same,IC (TGI),OVCAR-5,29.3 µM
same,GI50,HCC-2998,15.6 µM
same,CC50,HCC-2998,61.9 µM
same,IC (TGI),HCC-2998,31.1 µM
same,GI50,SF-268,8.59 µM
same,CC50,SF-268,73 µM
same,IC (TGI),SF-268,26 µM
same,GI50,A549/ATCC,17 µM
same,CC50,A549/ATCC,85.2 µM
same,IC (TGI),A549/ATCC,38 µM
same,GI50,SF-295,14.8 µM
same,CC50,SF-295,85.8 µM
same,IC (TGI),SF-295,35.7 µM
same,GI50,SW-620,2.93 µM
same,CC50,SW-620,74 µM
same,IC (TGI),SW-620,13.3 µM
same,GI50,IGROV1,17.4 µM
same,CC50,IGROV1,80.7 µM
same,IC (TGI),IGROV1,37.5 µM
same,GI50,U251,17.4 µM
same,CC50,U251,63.7 µM
same,IC (TGI),U251,33.3 µM
same,GI50,NCI-H522,1.7 µM
same,CC50,NCI-H522,8.15 µM
same,IC (TGI),NCI-H522,3.72 µM
same,GI50,A498,12.5 µM
same,CC50,A498,53.4 µM
same,IC (TGI),A498,25.9 µM
same,GI50,SN12C,10.4 µM
same,CC50,SN12C,69.7 µM
same,IC (TGI),SN12C,27 µM
same,GI50,PC-3,13.3 µM
same,CC50,PC-3,64.1 µM
same,IC (TGI),PC-3,29.2 µM
same,GI50,LOX IMVI,3.45 µM
same,CC50,LOX IMVI,42.1 µM
same,IC (TGI),LOX IMVI,13.1 µM
same,GI50,UACC-257,8.79 µM
same,CC50,UACC-257,64.3 µM
same,Percent Growth,UACC-257; Log10 Concentration −4.0,−73%
same,Percent Growth,UACC-257; Log10 Concentration −5.0,47%
same,Percent Growth,UACC-257; Log10 Concentration −6.0,95%
same,Percent Growth,UACC-257; Log10 Concentration −7.0,104%
same,Percent Growth,UACC-257; Log10 Concentration −8.0,102%
same,TGI,UACC-257,2.47E−5
same,GI50,SNB-19,16.7 µM
same,CC50,SNB-19,> 100 µM
same,IC (TGI),SNB-19,51.3 µM
same,GI50,CAKI-1,3.44 µM
same,CC50,CAKI-1,40.2 µM
same,IC (TGI),CAKI-1,15.5 µM
C=C1C(=O)O[C@H]2[C@H]1CC/C(COC(=O)OC)=C\CC[C@@]1(C)O[C@@H]21 [JVM 2-40],GI50,HOP-62,14.9 µM
same,CC50,HOP-62,62.2 µM
same,IC (TGI),HOP-62,30.4 µM
same,GI50,MDA-MB-231/ATCC,3.54 µM
same,CC50,MDA-MB-231/ATCC,46.7 µM
same,IC (TGI),MDA-MB-231/ATCC,16.6 µM
same,GI50,HOP-92,2.33 µM
same,CC50,HOP-92,30.7 µM
same,IC (TGI),HOP-92,7.99 µM
same,GI50,OVCAR-5,5.31 µM
same,CC50,OVCAR-5,47 µM
same,IC (TGI),OVCAR-5,19.5 µM
same,GI50,HCC-2998,13.8 µM
same,CC50,HCC-2998,56.8 µM
same,IC (TGI),HCC-2998,28 µM
same,GI50,SF-268,7.36 µM
same,CC50,SF-268,62.8 µM
same,IC (TGI),SF-268,23.6 µM
same,GI50,A549/ATCC,13.3 µM
same,CC50,A549/ATCC,61.3 µM
same,IC (TGI),A549/ATCC,28.6 µM
same,GI50,SF-295,13.2 µM
same,CC50,SF-295,59.3 µM
same,IC (TGI),SF-295,28 µM
same,GI50,SW-620,2.39 µM
same,CC50,SW-620,47.4 µM
same,IC (TGI),SW-620,11.9 µM
same,GI50,IGROV1,16.6 µM
same,CC50,IGROV1,85.8 µM
same,IC (TGI),IGROV1,37.7 µM
same,GI50,U251,16.4 µM
same,CC50,U251,55.5 µM
same,IC (TGI),U251,30.2 µM
same,GI50,NCI-H522,1.07 µM
same,CC50,NCI-H522,5.82 µM
same,IC (TGI),NCI-H522,2.5 µM
same,GI50,A498,10.9 µM
same,CC50,A498,49 µM
same,IC (TGI),A498,23.1 µM
same,GI50,SN12C,6.31 µM
same,CC50,SN12C,64.4 µM
same,IC (TGI),SN12C,22.6 µM
same,GI50,PC-3,12 µM
same,CC50,PC-3,59.4 µM
same,IC (TGI),PC-3,26.7 µM
same,GI50,LOX IMVI,3.4 µM
same,CC50,LOX IMVI,43.3 µM
same,IC (TGI),LOX IMVI,13.1 µM
same,GI50,UACC-257,4.98 µM
same,CC50,UACC-257,46.7 µM
same,Percent Growth,UACC-257; Log10 Concentration −4.0,−92%
same,Percent Growth,UACC-257; Log10 Concentration −5.0,36%
same,Percent Growth,UACC-257; Log10 Concentration −6.0,82%
same,Percent Growth,UACC-257; Log10 Concentration −7.0,84%
same,Percent Growth,UACC-257; Log10 Concentration −8.0,90%
same,TGI,UACC-257,1.90E−5
same,GI50,SNB-19,13.5 µM
same,CC50,SNB-19,59.1 µM
same,IC (TGI),SNB-19,28.2 µM
same,GI50,CAKI-1,2.79 µM
same,CC50,CAKI-1,38.8 µM
same,IC (TGI),CAKI-1,15 µM
